The source of these data is patent publication US20240116985A1, “STAPLED PEPTIDES AND METHODS THEREOF” (priority 2020, published 2024).

The nature of one series: CHI Log D procedure. Format: physicochemical. The following applies: for chromatographic logD: pH 7.4, CHI Log D; for CHI Log D: pH 7.4.
Series [1] addresses T1, full-length beta-Catenin (Uniprot ID P35222) (Homo sapiens, UniProt P35222).
T1 construct: 10 nM full-length beta-Catenin (Uniprot ID P35222)
T1 sequence (P35222 1-781): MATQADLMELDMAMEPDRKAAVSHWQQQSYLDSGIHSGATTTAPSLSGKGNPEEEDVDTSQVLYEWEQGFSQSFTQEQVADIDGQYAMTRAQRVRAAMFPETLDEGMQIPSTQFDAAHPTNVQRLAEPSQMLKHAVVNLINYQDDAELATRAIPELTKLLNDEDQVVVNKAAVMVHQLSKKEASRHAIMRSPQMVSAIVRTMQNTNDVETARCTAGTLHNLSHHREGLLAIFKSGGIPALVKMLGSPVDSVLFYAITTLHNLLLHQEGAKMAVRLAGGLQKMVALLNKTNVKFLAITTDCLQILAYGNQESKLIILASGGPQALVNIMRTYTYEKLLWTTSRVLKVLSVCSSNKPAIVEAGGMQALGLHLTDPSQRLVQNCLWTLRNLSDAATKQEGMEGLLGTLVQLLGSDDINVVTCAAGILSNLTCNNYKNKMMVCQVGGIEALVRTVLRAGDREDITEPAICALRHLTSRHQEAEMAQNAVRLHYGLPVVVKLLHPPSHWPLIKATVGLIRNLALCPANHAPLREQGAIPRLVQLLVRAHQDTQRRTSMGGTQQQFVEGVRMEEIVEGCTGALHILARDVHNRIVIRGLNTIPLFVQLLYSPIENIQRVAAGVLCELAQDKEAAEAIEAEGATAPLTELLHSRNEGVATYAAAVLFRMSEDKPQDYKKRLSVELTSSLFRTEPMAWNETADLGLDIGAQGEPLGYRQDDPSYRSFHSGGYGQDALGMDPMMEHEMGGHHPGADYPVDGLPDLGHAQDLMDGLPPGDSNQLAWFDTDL
Put plainly: Fluorescence polarization IC50 (beta-catenin / 5FAM-TCF4 10-53 competition). Format: binding.

Where [2] appears, read: fluorescence polarization, read-out: beta-Catenin FP IC50.

Each structure is given as a SMILES string. Read-outs that look alike come from different tables or passages of the source.

As a reminder, the chromatographic logD is a lipophilicity value derived from retention on a column. The low end stands for a more hydrophilic compound, the high end for a more lipophilic compound. For `CC(=O)N1CCC[C@]12CC=CCCCC1(CCCC=CCCCCCC[C@@](C)(C(=O)N[C@@H](Cc3ccccc3)C(=O)N[C@@H](Cc3csc4ccccc34)C(=O)N[C@@H](CCC(N)=O)C(N)=O)NC(=O)[C@H](CC(N)=O)NC(=O)[C@H](Cc3ccc(N)cc3)NC(=O)[C@H](C)NC(=O)[C@H](C)NC(=O)[C@H](CCC(=O)O)NC(=O)[C@H](CC(=O)O)NC1=O)NC(=O)[C@H](C)NC(=O)[C@H](CC(=O)O)NC2=O` (stereo partly drawn) [I-461, Ac-PL3-Asp-Ala-B5-Asp-Glu-Ala-Ala-4AmPhe-Asn-S8-Phe-BztA-Gln-NH2], the chromatographic logD in the series “CHI Log D procedure” was 1.94. The IC50 in series [1] (setting [2]) was 125 nM.

With `CC(=O)N1CCC[C@]12CC=CCCCC1(CCCC=CCCCCOC(=O)N3CC[C@@](C(=O)N[C@@H](Cc4ccccc4)C(=O)N[C@@H](Cc4csc5ccccc45)C(=O)N[C@@H](CCC(N)=O)C(N)=O)(C3)NC(=O)[C@H](CC(N)=O)NC(=O)[C@H](Cc3ccccc3)NC(=O)[C@H](C)NC(=O)[C@H](C)NC(=O)[C@H](CCC(=O)O)NC(=O)[C@H](CC(=O)O)NC1=O)NC(=O)[C@H](C)NC(=O)[C@H](CC(=O)O)NC2=O` (stereo partly drawn) [I-463, Ac-PL3-Asp-Ala-B5-Asp-Glu-Ala-Ala-Phe-Asn-PyrS3-Phe-BztA-Gln-NH2], the “CHI Log D” value in “CHI Log D procedure” stood at 1.785. The IC50 in series [1] (setting [2]) and in series [1] (read-out: FP EC50) was 92 nM throughout.

As for `CC(=O)N1CCC[C@]12CC=CCCCC1(CCCC=CCCCCOC(=O)N3CC[C@@](C(=O)N[C@@H](Cc4ccccc4)C(=O)N[C@@H](Cc4csc5ccccc45)C(=O)N[C@@H](CCC(N)=O)C(N)=O)(C3)NC(=O)[C@H](CC(N)=O)NC(=O)[C@H](Cc3ccccc3)NC(=O)[C@H](C)NC(=O)[C@H](C)NC(=O)[C@H](CCC(=O)O)NC(=O)[C@H](CC(=O)O)NC1=O)NC(=O)[C@H](C)NC(=O)[C@H](CC(=O)O)NC2=O` (stereo partly drawn) [I-464, Ac-PL3-Asp-Ala-B5-Asp-Glu-Ala-Ala-Phe-Asn-PyrS3-Phe-BztA-Gln-NH2], the “CHI Log D” value in the series “CHI Log D procedure” is listed as 1.831. Further, the IC50 in series [1] (setting [2]) and in series [1] (read-out: FP EC50) was 57 nM in each case.

On to `CC[C@H](C)[C@@H]1NC(=O)[C@H](CC(=O)O)NC(=O)[C@]2(CC=CCCCC3(CCCC=CCCCCCC[C@@](C)(C(=O)N[C@@H](Cc4ccccc4)C(=O)N[C@@H](Cc4csc5ccccc45)C(=O)N[C@@H](Cc4c[nH]cn4)C(N)=O)NC(=O)[C@H](CC(N)=O)NC(=O)[C@H](Cc4ccccc4)NC(=O)[C@H](C)NC(=O)[C@H](C)NC(=O)[C@H](CC(=O)O)NC(=O)[C@H](CC(=O)O)NC3=O)NC1=O)CCCN2C(C)=O` (stereo partly drawn) [I-469, Ac-PL3-Asp-Ile-B5-Asp-Asp-Ala-Ala-Phe-Asn-S8-Phe-BztA-His-NH2], for which the “CHI Log D” value in the series “CHI Log D procedure” amounted to 2.354. Moreover, the IC50 in series [1] (setting [2]) and in series [1] (read-out: FP EC50) was 27 nM in each case.

Consider `CC[C@H](C)[C@@H]1NC(=O)[C@H](CC(=O)O)NC(=O)[C@]2(CC=CCCCC3(CCCC=CCCCCCC[C@@](C)(C(=O)N[C@@H](Cc4ccccc4)C(=O)N[C@@H](Cc4csc5ccccc45)C(=O)N[C@@H](CCN)C(N)=O)NC(=O)[C@H](CCC(N)=O)NC(=O)[C@H](Cc4ccccc4)NC(=O)[C@H](C)NC(=O)[C@H](C)NC(=O)[C@H](CC(=O)O)NC(=O)[C@H](CC(=O)O)NC3=O)NC1=O)CCCN2C(C)=O` (stereo partly drawn) [I-482, Ac-PL3-Asp-Ile-B5-Asp-Asp-Ala-Ala-Phe-Gln-S8-Phe-BztA-Dab-NH2], for which, in the series “CHI Log D procedure”, the chromatographic logD came to 2.48. For the same compound, the IC50 in series [1] (setting [2]) was 118 nM.

In the case of `CC[C@H](C)[C@@H]1NC(=O)[C@H](CC(=O)O)NC(=O)[C@]2(CC=CCCCC3(CCCC=CCCCCCC[C@@](C)(C(=O)N[C@@H](Cc4ccccc4)C(=O)N[C@@H](Cc4csc5ccccc45)C(=O)N[C@@H](CC(N)=O)C(N)=O)NC(=O)[C@H](CCC(N)=O)NC(=O)[C@H](Cc4ccccc4)NC(=O)[C@H](C)NC(=O)[C@H](C)NC(=O)[C@H](CCC(=O)O)NC(=O)[C@H](CC(=O)O)NC3=O)NC1=O)CCCN2C(C)=O` (stereo partly drawn) [I-495, Ac-PL3-Asp-Ile-B5-Asp-Glu-Ala-Ala-Phe-Gln-S8-Phe-BztA-Asn-NH2], the chromatographic logD in “CHI Log D procedure” was 2.35. For the same compound, in series [1] (setting [2]), the IC50 was 181 nM.

For `COc1ccccc1C[C@H](NC(=O)[C@]1(C)CCCCCCC=CCCCC2(CCCC=CC[C@]3(CCCN3C(C)=O)C(=O)N[C@@H](CC(=O)O)C(=O)N[C@@H](C)C(=O)N2)C(=O)N[C@@H](CC(=O)O)C(=O)N[C@@H](CCC(=O)O)C(=O)N[C@@H](C)C(=O)N[C@@H](C)C(=O)N[C@@H](Cc2ccccc2)C(=O)N[C@@H](CCC(N)=O)C(=O)N1)C(=O)N[C@@H](Cc1csc2ccccc12)C(=O)N[C@@H](CCC(N)=O)C(N)=O` (stereo partly drawn) [I-525, Ac-PL3-Asp-Ala-B5-Asp-Glu-Ala-Ala-Phe-Gln-S8-2OMeF-BztA-Gln-NH2], the “CHI Log D” value in “CHI Log D procedure” was 2.019. Further, the IC50 in series [1] (setting [2]) and in series [1] (read-out: FP EC50) was 196 nM throughout.

`COc1ccccc1C[C@H](NC(=O)[C@]1(C)CCCCCCC=CCCCC2(CCCC=CC[C@]3(CCCN3C(C)=O)C(=O)N[C@@H](CC(=O)O)C(=O)N[C@@H](C)C(=O)N2)C(=O)N[C@@H](CC(=O)O)C(=O)N[C@@H](CCC(=O)O)C(=O)N[C@@H](C)C(=O)N[C@@H](C)C(=O)N[C@@H](Cc2ccccc2)C(=O)N[C@@H](CCC(N)=O)C(=O)N1)C(=O)N[C@@H](Cc1csc2ccccc12)C(=O)N[C@@H](CCC(N)=O)C(N)=O` (stereo partly drawn) [I-526, Ac-PL3-Asp-Ala-B5-Asp-Glu-Ala-Ala-Phe-Gln-S8-2OMeF-BztA-Gln-NH2]: the “CHI Log D” value in “CHI Log D procedure” stood at 2.049. The IC50 in series [1] (setting [2]) and in series [1] (read-out: FP EC50) was 56 nM throughout.

Turning to `CC[C@H](C)[C@@H]1NC(=O)[C@H](CC(=O)O)NC(=O)[C@]2(CC=CCCCC3(CCCC=CCCCCCC[C@@](C)(C(=O)N[C@@H](Cc4ccccc4OC)C(=O)N[C@@H](Cc4csc5ccccc45)C(=O)N[C@@H](CCC(N)=O)C(N)=O)NC(=O)[C@H](CCC(N)=O)NC(=O)[C@H](Cc4ccccc4)NC(=O)[C@H](C)NC(=O)[C@H](C)NC(=O)[C@H](CCC(=O)O)NC(=O)[C@H](CC(=O)O)NC3=O)NC1=O)CCCN2C(C)=O` (stereo partly drawn) [I-527, Ac-PL3-Asp-Ile-B5-Asp-Glu-Ala-Ala-Phe-Gln-S8-2OMeF-BztA-Gln-NH2], in the series “CHI Log D procedure”, the “CHI Log D” value was 2.376. The IC50 in series [1] (setting [2]) and in series [1] (read-out: FP EC50) was 98 nM throughout.

With `CC[C@H](C)[C@@H]1NC(=O)[C@H](CC(=O)O)NC(=O)[C@]2(CC=CCCCC3(CCCC=CCCCCCC[C@@](C)(C(=O)N[C@@H](Cc4ccccc4OC)C(=O)N[C@@H](Cc4csc5ccccc45)C(=O)N[C@@H](CCC(N)=O)C(N)=O)NC(=O)[C@H](CCC(N)=O)NC(=O)[C@H](Cc4ccccc4)NC(=O)[C@H](C)NC(=O)[C@H](C)NC(=O)[C@H](CCC(=O)O)NC(=O)[C@H](CC(=O)O)NC3=O)NC1=O)CCCN2C(C)=O` (stereo partly drawn) [I-528, Ac-PL3-Asp-Ile-B5-Asp-Glu-Ala-Ala-Phe-Gln-S8-2OMeF-BztA-Gln-NH2], in the series “CHI Log D procedure”, the “CHI Log D” value was determined as 2.395. The IC50 in series [1] (setting [2]) and in series [1] (read-out: FP EC50) was 63 nM in each case.

As for `CC(=O)N1CCC[C@]12CC=CCCCC1(CCCC=CCCCCCC[C@@](C)(C(=O)N[C@@H](Cc3ccccc3)C(=O)N[C@@H](Cc3csc4ccccc34)C(=O)N[C@@H](CCC(N)=O)C(N)=O)NC(=O)[C@H](CC(N)=O)NC(=O)[C@H](Cc3ccccc3)NC(=O)[C@H](C)NC(=O)[C@H](C)NC(=O)[C@H](CC(=O)O)NC(=O)[C@H](CC(=O)O)NC1=O)NC(=O)[C@H](CCC(C)C)NC(=O)[C@H](CC(=O)O)NC2=O` (stereo partly drawn) [I-547, Ac-PL3-Asp-hLeu-B5-Asp-Asp-Ala-Ala-Phe-Asn-S8-Phe-BztA-Gln-NH2], the “CHI Log D” value in the series “CHI Log D procedure” is recorded as 2.45. In addition, the IC50 in series [1] (setting [2]) and in series [1] (read-out: FP EC50) was 43 nM in each case.

As to `CC[C@H](C)[C@@H]1NC(=O)[C@H](CC(=O)O)NC(=O)[C@]2(CC=CCCCC3(CCCC=CCCCCCC[C@@](C)(C(=O)N[C@@H](Cc4ccccc4OC)C(=O)N[C@@H](Cc4csc5ccccc45)C(=O)N[C@@H](CCC(N)=O)C(N)=O)NC(=O)[C@H](CC(N)=O)NC(=O)[C@H](Cc4ccccc4)NC(=O)[C@H](C)NC(=O)[C@H](C)NC(=O)[C@H](CC(=O)O)NC(=O)[C@H](CC(=O)O)NC3=O)NC1=O)CCCN2C(C)=O` (stereo partly drawn) [I-549, Ac-PL3-Asp-Ile-B5-Asp-Asp-Ala-Ala-Phe-Asn-S8-2OMeF-BztA-Gln-NH2], in the series “CHI Log D procedure”, the “CHI Log D” value is 2.291. The IC50 in series [1] (setting [2]) and in series [1] (read-out: FP EC50) was 71 nM each time.

In the case of `CC[C@H](C)[C@@H]1NC(=O)[C@H](CC(=O)O)NC(=O)[C@]2(CC=CCCCC3(CCCC=CCCCCCC[C@@](C)(C(=O)N[C@@H](Cc4ccsc4)C(=O)N[C@@H](Cc4csc5ccccc45)C(=O)N[C@@H](CCC(N)=O)C(N)=O)NC(=O)[C@H](CC(N)=O)NC(=O)[C@H](Cc4ccccc4)NC(=O)[C@H](C)NC(=O)[C@H](C)NC(=O)[C@H](CC(=O)O)NC(=O)[C@H](CC(=O)O)NC3=O)NC1=O)CCCN2C(C)=O` (stereo partly drawn) [I-552, Ac-PL3-Asp-Ile-B5-Asp-Asp-Ala-Ala-Phe-Asn-S8-3Thi-BztA-Gln-NH2], in “CHI Log D procedure”, the “CHI Log D” value amounted to 2.334. Further, the IC50 in series [1] (setting [2]) and in series [1] (read-out: FP EC50) was 15.5 nM throughout.
